# Assay results published in patent US6358885B1, “Substituted phenylheterocyclic herbicides” (Mississippi State University, priority 1992, dated 2002).
# How the values were obtained:
# Test in all cases: Test B preemergence/postemergence greenhouse plant response rating 0 to 10
# barley = format: in vivo, Hordeum vulgare; conditions: for Plant response rating, Barley: 0 to 10 scale
# How it was run: (§1)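 Test chemicals, dissolved in a non-phytotoxic solvent, were applied to soil at planting and, at the same time, over foliage of seedlings at the one to four leaf stage.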
# barnyardgrass = format: in vivo, Echinochloa crus-galli; conditions: for Plant response rating, Barnyardgrass: 0 to 10 scale
# How it was run: as §1
# bedstraw = format: in vivo, Galium aparine; conditions: for Plant response rating, Bedstraw: 0 to 10 scale
# How it was run: as §1
# blackgrass = format: in vivo, Alopecurus myosuroides; conditions: for Plant response rating, Blackgrass: 0 to 10 scale
# How it was run: as §1
# cheatgrass = format: in vivo, Bromus secalinus; conditions: for Plant response rating, Cheatgrass: 0 to 10 scale
# How it was run: as §1
# chickweed = format: in vivo, Stellaria media; conditions: for Plant response rating, Chickweed: 0 to 10 scale
# How it was run: as §1
# cocklebur = format: in vivo, Xanthium pensylvanicum; conditions: for Plant response rating, Cocklebur: 0 to 10 scale
# How it was run: as §1
# corn = format: in vivo, Zea mays; conditions: for Plant response rating, Corn: 0 to 10 scale
# How it was run: as §1
# cotton = format: in vivo, Gossypium hirsutum; conditions: for Plant response rating, Cotton: 0 to 10 scale
# How it was run: as §1
# crabgrass = format: in vivo, Digitaria spp.; conditions: for Plant response rating, Crabgrass: 0 to 10 scale
# How it was run: as §1
# giant foxtail = format: in vivo, Setaria faberii; conditions: for Plant response rating, Giant foxtail: 0 to 10 scale
# How it was run: as §1
# lambsquarters = format: in vivo, Chenopodium album; conditions: for Plant response rating, Lambsquarter: 0 to 10 scale
# How it was run: as §1
# morningglory = format: in vivo, Ipomoea hederacea; conditions: for Plant response rating, Morningglory: 0 to 10 scale
# How it was run: as §1
# rape = format: in vivo, Brassica napus; conditions: for Plant response rating, Rape: 0 to 10 scale
# How it was run: as §1
# rice = format: in vivo, Oryza sativa; conditions: for Plant response rating, Rice: 0 to 10 scale
# How it was run: as §1
# sorghum = format: in vivo, Sorghum bicolor; conditions: for Plant response rating, Sorghum: 0 to 10 scale
# How it was run: as §1
# soybean = format: in vivo, Glycine max; conditions: for Plant response rating, Soybean: 0 to 10 scale
# How it was run: as §1
# sugar beet = format: in vivo, Beta vulgaris; conditions: for Plant response rating, Sugar beet: 0 to 10 scale
# How it was run: as §1
# velvetleaf = format: in vivo, Abutilon theophrasti; conditions: for Plant response rating, Velvetleaf: 0 to 10 scale
# How it was run: as §1
# wheat = format: in vivo, Triticum aestivum; conditions: for Plant response rating, Wheat: 0 to 10 scale
# How it was run: as §1
# wild buckwheat = format: in vivo, Polygonum convolvulus; conditions: for Plant response rating, Wild buckwheat: 0 to 10 scale
# How it was run: as §1
# wild oat = format: in vivo, Avena fatua; conditions: for Plant response rating, Wild oat: 0 to 10 scale
# How it was run: as §1
# purple nutsedge = format: in vivo, Cyperus rotundus; conditions: for Plant response rating, Nutsedge: 0 to 10 scale
# How it was run: as §1
compound,measurement,setting,value
CC(C)(C)C(=O)COc1cc(-c2nn3c(c2Cl)CCCC3)c(Cl)cc1Cl [Compound 77],"Plant response rating, Barley","barley; POSTEMERGENCE, Rate 50 g/ha",2
same,"Plant response rating, Barley","barley; PREEMERGENCE, Rate 50 g/ha",0
same,"Plant response rating (0 to 10 scale), Barley","barley; PREEMERGENCE, Rate 200 g/ha",0
same,"Plant response rating, Barley","barley; Rate 200 g/ha, POSTEMERGENCE",3
same,"Plant response rating, Barnyardgrass","barnyardgrass; POSTEMERGENCE, Rate 50 g/ha",4
same,"Plant response rating, Barnyardgrass","barnyardgrass; PREEMERGENCE, Rate 50 g/ha",0
same,"Plant response rating (0 to 10 scale), Barnyardgrass","barnyardgrass; PREEMERGENCE, Rate 200 g/ha",3
same,"Plant response rating, Barnyardgrass","barnyardgrass; Rate 200 g/ha, POSTEMERGENCE",8
same,"Plant response rating, Bedstraw","bedstraw; POSTEMERGENCE, Rate 50 g/ha",4
same,"Plant response rating, Bedstraw","bedstraw; PREEMERGENCE, Rate 50 g/ha",3
same,"Plant response rating (0 to 10 scale), Bedstraw","bedstraw; PREEMERGENCE, Rate 200 g/ha",10
same,"Plant response rating, Bedstraw","bedstraw; Rate 200 g/ha, POSTEMERGENCE",5
same,"Plant response rating, Blackgrass","blackgrass; POSTEMERGENCE, Rate 50 g/ha",2
same,"Plant response rating, Blackgrass","blackgrass; PREEMERGENCE, Rate 50 g/ha",2
same,"Plant response rating (0 to 10 scale), Blackgrass","blackgrass; PREEMERGENCE, Rate 200 g/ha",3
same,"Plant response rating, Blackgrass","blackgrass; Rate 200 g/ha, POSTEMERGENCE",3
same,"Plant response rating, Cheatgrass","cheatgrass; POSTEMERGENCE, Rate 50 g/ha",2
same,"Plant response rating, Cheatgrass","cheatgrass; PREEMERGENCE, Rate 50 g/ha",3
same,"Plant response rating (0 to 10 scale), Cheatgrass","cheatgrass; PREEMERGENCE, Rate 200 g/ha",5
same,"Plant response rating, Cheatgrass","cheatgrass; Rate 200 g/ha, POSTEMERGENCE",3
same,"Plant response rating, Chickweed","chickweed; POSTEMERGENCE, Rate 50 g/ha",2
same,"Plant response rating, Chickweed","chickweed; PREEMERGENCE, Rate 50 g/ha",0
same,"Plant response rating (0 to 10 scale), Chickweed","chickweed; PREEMERGENCE, Rate 200 g/ha",1
same,"Plant response rating, Chickweed","chickweed; Rate 200 g/ha, POSTEMERGENCE",3
same,"Plant response rating, Cocklebur","cocklebur; POSTEMERGENCE, Rate 50 g/ha",7
same,"Plant response rating, Cocklebur","cocklebur; PREEMERGENCE, Rate 50 g/ha",0
same,"Plant response rating (0 to 10 scale), Cocklebur","cocklebur; PREEMERGENCE, Rate 200 g/ha",1
same,"Plant response rating, Cocklebur","cocklebur; Rate 200 g/ha, POSTEMERGENCE",9
same,"Plant response rating, Corn","corn; POSTEMERGENCE, Rate 50 g/ha",3
same,"Plant response rating, Corn","corn; PREEMERGENCE, Rate 50 g/ha",0
same,"Plant response rating (0 to 10 scale), Corn","corn; PREEMERGENCE, Rate 200 g/ha",0
same,"Plant response rating, Corn","corn; Rate 200 g/ha, POSTEMERGENCE",3
same,"Plant response rating, Cotton","cotton; POSTEMERGENCE, Rate 50 g/ha",10
same,"Plant response rating, Cotton","cotton; PREEMERGENCE, Rate 50 g/ha",0
same,"Plant response rating (0 to 10 scale), Cotton","cotton; PREEMERGENCE, Rate 200 g/ha",0
same,"Plant response rating, Cotton","cotton; Rate 200 g/ha, POSTEMERGENCE",10
same,"Plant response rating, Crabgrass","crabgrass; POSTEMERGENCE, Rate 50 g/ha",5
same,"Plant response rating, Crabgrass","crabgrass; PREEMERGENCE, Rate 50 g/ha",2
same,"Plant response rating (0 to 10 scale), Crabgrass","crabgrass; PREEMERGENCE, Rate 200 g/ha",3
same,"Plant response rating, Crabgrass","crabgrass; Rate 200 g/ha, POSTEMERGENCE",6
same,"Plant response rating, Giant foxtail","giant foxtail; POSTEMERGENCE, Rate 50 g/ha",5
same,"Plant response rating, Giant foxtail","giant foxtail; PREEMERGENCE, Rate 50 g/ha",2
same,"Plant response rating (0 to 10 scale), Giant foxtail","giant foxtail; PREEMERGENCE, Rate 200 g/ha",2
same,"Plant response rating, Giant foxtail","giant foxtail; Rate 200 g/ha, POSTEMERGENCE",6
same,"Plant response rating, Lambsquarter","lambsquarters; POSTEMERGENCE, Rate 50 g/ha",10
same,"Plant response rating, Lambsquarter","lambsquarters; PREEMERGENCE, Rate 50 g/ha",10
same,"Plant response rating (0 to 10 scale), Lambsquarter","lambsquarters; PREEMERGENCE, Rate 200 g/ha",10
same,"Plant response rating, Lambsquarter","lambsquarters; Rate 200 g/ha, POSTEMERGENCE",10
same,"Plant response rating, Morningglory","morningglory; POSTEMERGENCE, Rate 50 g/ha",8
same,"Plant response rating, Morningglory","morningglory; PREEMERGENCE, Rate 50 g/ha",0
same,"Plant response rating (0 to 10 scale), Morningglory","morningglory; PREEMERGENCE, Rate 200 g/ha",0
same,"Plant response rating, Morningglory","morningglory; Rate 200 g/ha, POSTEMERGENCE",9
same,"Plant response rating, Rape","rape; POSTEMERGENCE, Rate 50 g/ha",6
same,"Plant response rating, Rape","rape; PREEMERGENCE, Rate 50 g/ha",0
same,"Plant response rating (0 to 10 scale), Rape","rape; PREEMERGENCE, Rate 200 g/ha",6
same,"Plant response rating, Rape","rape; Rate 200 g/ha, POSTEMERGENCE",7
same,"Plant response rating, Rice","rice; POSTEMERGENCE, Rate 50 g/ha",4
same,"Plant response rating, Rice","rice; PREEMERGENCE, Rate 50 g/ha",0
same,"Plant response rating (0 to 10 scale), Rice","rice; PREEMERGENCE, Rate 200 g/ha",0
same,"Plant response rating, Rice","rice; Rate 200 g/ha, POSTEMERGENCE",6
same,"Plant response rating, Sorghum","sorghum; POSTEMERGENCE, Rate 50 g/ha",5
same,"Plant response rating, Sorghum","sorghum; PREEMERGENCE, Rate 50 g/ha",0
same,"Plant response rating (0 to 10 scale), Sorghum","sorghum; PREEMERGENCE, Rate 200 g/ha",0
same,"Plant response rating, Sorghum","sorghum; Rate 200 g/ha, POSTEMERGENCE",5
same,"Plant response rating, Soybean","soybean; POSTEMERGENCE, Rate 50 g/ha",5
same,"Plant response rating, Soybean","soybean; PREEMERGENCE, Rate 50 g/ha",0
same,"Plant response rating (0 to 10 scale), Soybean","soybean; PREEMERGENCE, Rate 200 g/ha",0
same,"Plant response rating, Soybean","soybean; Rate 200 g/ha, POSTEMERGENCE",7
same,"Plant response rating, Sugar beet","sugar beet; POSTEMERGENCE, Rate 50 g/ha",10
same,"Plant response rating, Sugar beet","sugar beet; PREEMERGENCE, Rate 50 g/ha",3
same,"Plant response rating (0 to 10 scale), Sugar beet","sugar beet; PREEMERGENCE, Rate 200 g/ha",3
same,"Plant response rating, Sugar beet","sugar beet; Rate 200 g/ha, POSTEMERGENCE",10
same,"Plant response rating, Velvetleaf","velvetleaf; POSTEMERGENCE, Rate 50 g/ha",10
same,"Plant response rating, Velvetleaf","velvetleaf; PREEMERGENCE, Rate 50 g/ha",3
same,"Plant response rating (0 to 10 scale), Velvetleaf","velvetleaf; PREEMERGENCE, Rate 200 g/ha",7
same,"Plant response rating, Velvetleaf","velvetleaf; Rate 200 g/ha, POSTEMERGENCE",10
same,"Plant response rating, Wheat","wheat; POSTEMERGENCE, Rate 50 g/ha",2
same,"Plant response rating, Wheat","wheat; PREEMERGENCE, Rate 50 g/ha",0
same,"Plant response rating (0 to 10 scale), Wheat","wheat; PREEMERGENCE, Rate 200 g/ha",0
same,"Plant response rating, Wheat","wheat; Rate 200 g/ha, POSTEMERGENCE",5
same,"Plant response rating, Wild buckwheat","wild buckwheat; POSTEMERGENCE, Rate 50 g/ha",10
same,"Plant response rating, Wild buckwheat","wild buckwheat; PREEMERGENCE, Rate 50 g/ha",8
same,"Plant response rating (0 to 10 scale), Wild buckwheat","wild buckwheat; PREEMERGENCE, Rate 200 g/ha",9
same,"Plant response rating, Wild buckwheat","wild buckwheat; Rate 200 g/ha, POSTEMERGENCE",10
same,"Plant response rating, Wild oat","wild oat; POSTEMERGENCE, Rate 50 g/ha",1
same,"Plant response rating, Wild oat","wild oat; PREEMERGENCE, Rate 50 g/ha",0
same,"Plant response rating (0 to 10 scale), Wild oat","wild oat; PREEMERGENCE, Rate 200 g/ha",0
same,"Plant response rating, Wild oat","wild oat; Rate 200 g/ha, POSTEMERGENCE",3
same,"Plant response rating, Nutsedge","purple nutsedge; POSTEMERGENCE, Rate 50 g/ha",2
same,"Plant response rating, Nutsedge","purple nutsedge; PREEMERGENCE, Rate 50 g/ha",0
same,"Plant response rating (0 to 10 scale), Nutsedge","purple nutsedge; PREEMERGENCE, Rate 200 g/ha",0
same,"Plant response rating, Nutsedge","purple nutsedge; Rate 200 g/ha, POSTEMERGENCE",2
